Data reported in patent US8912224B2, “Substituted 2-(chroman-6-yloxy)-thiazoles and their use as pharmaceuticals” (Sanofi, priority 2011, dated 2014).

What was measured:
[1] = molecular target: T1, human NCX1 (Homo sapiens (Human), UniProt P32418); assay: Inhibition of Ca2+ influx into cells (NCX1 reverse mode), FLIPR Fluo-4 assay; type: cell-based; settings: inhibition of NCX1 in reverse mode (Ca2+ influx into cells); read-out: NCX1rv IC50
Source text: (§1) The sodium/calcium exchanger NCX1 can transport calcium ions and sodium ions through the cell membrane. The transport is an exchange of Ca^2+and Na^+in two directions depending on membrane potential and ion gradients. At the first direction, named “forward mode” or “calcium export mode”, Ca^2+is transported out of the cell and Na^+ is transported into the cell. At the other direction, named “reverse mode” or “calcium import mode”, the transport directions are vice versa. The effect of the compounds of the invention on NCX1 was determined in CHO cells stably expressing human NCX1 (gene symbol SLC8A1; cf. WO 2009/115238). The assay is based on the monitoring of intracellular Ca^2+concentrations using a calcium-sensitive fluorescence dye which is detected by means of a FLIPR device (Fluorimetric Imaging Plate Reader, Molecular Devices).
Assay Technology—Reverse Mode
The assay is based on the monitoring of intracellular Ca^2+concentrations using the calcium-sensitive dye Fluo-4. CHO cells expressing NCX1 were loaded with the dye by means of the acetoxymethyl ester Fluo-4 AM (Invitrogen, F14202), which is cleaved intracellularly by esterase activity to yield the charged species of free Fluo-4. After an preincubation period with the test compound, Gramicidine (Sigma, G5002) was added. Gramicidine is an ionophor for Na^+ions mediating an increase of intracellular Na^+ions. Consequently, intracellular Na^+ions are exchanged against extracellular Ca^2+ions (Ca^2+influx, reverse mode). The intracellular elevation of Ca^2+ ions was detected by measuring the fluorescence of Fluo-4 at a wavelength of 520 nm by a FLIPR device.
Briefly, for the reverse mode transport assay 18000 cells per well were seeded into a 96 well microplate (Corning COSTAR 3904) and incubated overnight in culture medium (1× Nut Mix F12 (Ham) (Gibco, 21765-029); 10% (v/v) fetal calf serum (PAA Gold, A15-649); 450 μg/ml Geneticin (Gibco, 10131-027)). A total volume of 100 μl medium per well was used. For the preparation of the FLIPR assay, the culture medium was removed from the plates and 100 μl of dye solution (2 μM Fluo-4 AM; 0.02% (v/v) Pluronic F-127 (20%, Invitrogen, P3000MP); 0.1% (v/v) bovine albumin solution (30% (v/v), Sigma, A9205) in assay buffer (133.8 mM NaCl (Sigma, S5886); 4.7 mM KCl (Sigma, P3911); 1.25 mM MgCl2 (Merck, 1.05833.0250); 3.5 mM CaCl2 (Merck, 1.02083.0250); 5 mM glucose (Sigma, G7021); 10 mM Hepes (Sigma, H4034); 0.01% (v/v) Pluronic F-127 (5%, Sigma, P2443); 2.5 mM Probenecid (Maybridge, SB00915EB); pH 7.4)) were added into each well. The plates were incubated in the dark at room temperature for 80 min. After the incubation period, the dye solution was removed and the wells were washed with 100 μl of assay buffer. Then 80 μl of a solution of the test compound in assay buffer in different concentrations were added into the wells. The plates were incubated at 16° C. for 45 min. Meanwhile a 60 μM solution of Gramicidine in assay buffer (4° C.) was prepared and stored in the wells of a 96 well microplate (96 well microplate, polypropylene, U-shape (Greiner Bio-One, 650201)) at 4° C. until measurement was started. The fluorescence monitoring was performed at 240 measuring points with measurement intervals of 2 sec. After the fifth measuring point, 40 μl of the Gramicidine solution were added to each well of the assay plates to give a final Gramicidine concentration of 20 μM. For the determination of the IC50 values the minimal fluorescence value was subtracted from the maximal fluorescence value for all measuring points. The calculation of the IC50 values via the percentage inhibitions of Ca^2+influx into cells (reverse mode) effected by the test compound was performed in Biost@t Speed 2.0.

[2] = tested on: Sprague-Dawley rats; assay: In vivo method for determining the effect on heart contractility (left ventricular dp/dtmax) in anesthetized rats; settings: rat, versus solvent control; for change in vivo at 0.1 mg/kg / change in vivo at 0.3 mg/kg / change in vivo at 1 mg/kg: iv, i.v. bolus injection, read-out: Contractility increase (%); for Contractility increase (%): i.v. infusion
Description: B) In vivo Method for Determining the Effect on Heart Contractility Adult male Sprague-Dawley rats (Harlan […], Germany) weighing 340 to 370 g were anesthetized with pentobarbital (100 mg/kg i.p.) and ventilated with a mixture of oxygen (40%) and room air (60%) at a tidal volume of 1 ml/100 g at 60 breaths/min. Body temperature was maintained at 36.5±0.3° C. with a heating lamp and was monitored with a rectal thermo sensor. Systemic blood pressure was measured in the left carotid artery using a pressure transducer (Combitrans; B. Braun Melsungen AG, Melsungen, Germany) connected to a DC-bridge-amplifier (PLUGSYS/ADC Type 663; Harvard Apparatus GmbH, March-Hugstetten, Germany). The electrocardiogram was measured as lead II via subcutaneously placed electrodes connected to a Heart-Rate-Module ([…] Type 669; Harvard Apparatus GmbH, March-Hugstetten, Germany). A micro-tip catheter (2 French, SPR-320; Millar Instruments, Houston, Tex., USA) was placed via the right carotid artery into the left ventricle, and the left ventricular pressure (LVP) and the end diastolic pressure (EDP) were continuously measured. Registration of the hemodynamic data was performed via an analog digital converter by a personal computer using Notocord software (HEM version 3.5). Left ventricular contractility (dp/dtmax) and relaxation (dp/dtmin) were calculated from the LVP signal. For intravenous administration of the test compounds, the left jugular vein was prepared and a PP-50 catheter was inserted. Test compounds were administered either by intravenous bolus injection or by intravenous infusion by means of an infusion pump (Unita; B. Braun Melsungen AG, Melsungen, Germany). […] In a typical experiment, several dosages of the test compound were administered subsequently at increasing doses. Statistical significance of the data obtained with drug vs control experiments, in which solvent was administered, was evaluated with the 2-sided ANOVA test (program Everstat). Increases in left ventricular contractility (percent increase) by example compounds are given in Table 3 in comparison to control experiments in which solvent was administered.

[3] = molecular target: T1, human NCX1; assay: Inhibition of Ca2+ efflux out of cells (NCX1 forward mode), FLIPR assay; type: cell-based; settings: CHO cells stably expressing human NCX1, Ionomycin 2 μM, read-out: NCX1fw IC50
Source text: as §1
Assay Technology—Forward Mode
The assay is based on the monitoring of intracellular Ca^2+concentrations using the PBX Calcium Assay Kit from BD (Becton, Dickinson and Company) with calcium indicator dye 51-9000177BKa (BD, 640177), CHO cells expressing NCX1 were loaded with the dye, and after a preincubation period with the test compound, lonomycin (Calbiochem, 407950) was added. Ionomycin is an ionophor for Ca^2+ions mediating an increase of intracellular Ca^2+ions. Consequently, intracellular Ca^2+ions are exchanged against extracellular Na^+ions (Ca^2+efflux, forward mode). The decrease of intracellular Ca^2+ions was detected by measuring the fluorescence of the calcium indicator dye at a wavelength of 520 nm by a FLIPR device.
Briefly, similarly as for the reverse mode, for the forward mode transport assay 18000 cells per well were seeded into a 96 well microplate (Corning COSTAR 3904) and incubated overnight in culture medium (cf. above). A total volume of 100 μl medium per well was used. For the preparation of the FLIPR assay, the culture medium was removed from the plates and 100 μl of assay buffer (133.8 mM NaCl (Sigma, S5886); 4.7 mM KCl (Sigma, P3911); 1.25 mM MgCl2 (Merck, 1.05833.0250); 3.5 mM CaCl2 (Merck, 1.02083.0250); 5 mM glucose (Sigma. G7021); 10 mM Hepes (Sigma, H4034); pH 7.4)) were added to each well in a washing step. Assay buffer was removed, and 100 μl of a solution of the test compound in assay buffer in different concentrations were added into the wells. Further, 100 μl of dye solution (0.09% (v/v) calcium indicator dye, 9.1% (v/v) signal enhancer (from PBX Calcium Assay Kit); in assay buffer) were added into each well. The plates were incubated in the dark at room temperature for 60 min. Meanwhile a 10 μM solution of lonomycin in assay buffer (additionally containing 0.05% fetal calf serum (cf. above); 4° C.) was prepared and stored in the wells of a 96 well microplate (96 well microplate, polypropylene, U-shape (Greiner Bio-One, 650201)). The fluorescence monitoring was performed at 60 measuring points with measurement intervals of 2 sec. After the fifth measuring point, 50 μl of the lonomycin solution were added to each well of the assay plate to give a final lonomycin concentration of 2 μM. For the determination of the IC50 values the minimal fluorescence value was subtracted from the maximal fluorescence value for the fifteenth to fifty-fifth measuring points. The calculation of the IC50 values via the percentage inhibitions of Ca^2+efflux out of cells (forward mode) effected by the test compound was performed in Biost@t Speed 2.0. “NCX1fw IC50” in Table 2 means the IC50 value for inhibition of NCX1 in forward mode (in μM (micromol/liter)).

T1 sequence (P32418 whole entry, looked up): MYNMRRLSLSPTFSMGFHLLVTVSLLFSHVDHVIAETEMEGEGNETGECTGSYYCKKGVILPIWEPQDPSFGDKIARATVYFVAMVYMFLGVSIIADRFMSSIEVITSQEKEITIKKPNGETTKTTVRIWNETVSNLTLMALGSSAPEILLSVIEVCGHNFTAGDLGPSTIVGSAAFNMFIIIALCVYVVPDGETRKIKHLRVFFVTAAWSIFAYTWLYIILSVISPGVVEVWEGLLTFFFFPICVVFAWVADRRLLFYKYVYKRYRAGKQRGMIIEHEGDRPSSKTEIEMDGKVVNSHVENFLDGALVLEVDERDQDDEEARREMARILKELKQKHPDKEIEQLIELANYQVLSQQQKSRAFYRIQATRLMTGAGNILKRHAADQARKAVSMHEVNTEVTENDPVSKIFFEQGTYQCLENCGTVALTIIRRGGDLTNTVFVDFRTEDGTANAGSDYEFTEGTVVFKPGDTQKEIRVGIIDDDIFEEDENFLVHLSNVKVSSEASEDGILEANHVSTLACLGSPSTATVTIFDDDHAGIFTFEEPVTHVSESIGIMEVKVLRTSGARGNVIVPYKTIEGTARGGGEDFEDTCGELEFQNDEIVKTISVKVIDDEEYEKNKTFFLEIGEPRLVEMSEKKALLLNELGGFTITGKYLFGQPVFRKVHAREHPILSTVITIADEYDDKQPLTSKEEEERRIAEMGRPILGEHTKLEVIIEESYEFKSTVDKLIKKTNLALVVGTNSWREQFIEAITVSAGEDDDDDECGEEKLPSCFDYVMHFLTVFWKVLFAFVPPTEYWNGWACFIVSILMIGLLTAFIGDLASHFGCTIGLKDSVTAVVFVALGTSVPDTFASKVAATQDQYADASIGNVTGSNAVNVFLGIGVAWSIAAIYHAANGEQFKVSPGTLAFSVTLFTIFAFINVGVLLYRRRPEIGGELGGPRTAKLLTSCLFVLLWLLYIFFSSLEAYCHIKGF

| Compound | IC50 [1] | change in vivo at 0.1 mg/kg [2] | change in vivo at 0.3 mg/kg [2] | change in vivo at 1 mg/kg [2] | IC50 [3] | Contractility increase (%) ([2]; 0.03 mg/kg/min) | Contractility increase (%) ([2]; 0.1 mg/kg/min) |
| --- | --- | --- | --- | --- | --- | --- | --- |
| 2-[2-(2,6-Dimethyl-phenyl)-chroman-6-yloxy]-thiazole-5-carboxylic acid [2-(2-oxo-imidazolidin-1-yl)-ethyl]-amide [compound 347] | 1500 nM | – | – | – | – | – | – |
| O=C(NC1CC1)c1cnc(Oc2ccc3c(c2)CCC(c2ccccc2)O3)s1 (stereo not drawn) [Example 315, 2-(2-Phenyl-chroman-6-yloxy)-thiazole-5-carboxylic acid cyclopropylamide] | – | 28% | 41% | 64% | 3300 nM | – | – |
| Cc1ccccc1[C@@H]1CCc2cc(Oc3ncc(C(=O)NCCO)s3)ccc2O1 [Example 326, 2-((S)-2-o-Tolyl-chroman-6-yloxy)-thiazole-5-carboxylic acid (2-hydroxy-ethyl)-amide] | 100 nM | 67% | 105% | 138% | 200 nM | – | – |
| Cc1ccccc1C1CCc2cc(Oc3ncc(CNC(=O)CN4CCCC4=O)s3)ccc2O1 (stereo not drawn) [Example 327, 2-(2-Oxo-pyrrolidin-1-yl)-N-[2-(2-o-tolyl-chroman-6-yloxy)-thiazol-5-ylmethyl]-acetamide] | 500 nM | 9% | 27% | 55% | 3000 nM | – | – |
| CCCNC(=O)c1cnc(Oc2ccc3c(c2)CCC(c2ccccc2C)O3)s1 (stereo not drawn) [Example 330, 2-(2-o-Tolyl-chroman-6-yloxy)-thiazole-5-carboxylic acid propylamide] | 300 nM | 50% | 86% | 161% | 350 nM | – | – |
| Cc1ccccc1C1CCc2cc(Oc3nc(C)c(C(=O)NCc4ccno4)s3)ccc2O1 (stereo not drawn) [Example 334, 4-Methyl-2-(2-o-tolyl-chroman-6-yloxy)-thiazole-5-carboxylic acid (isoxazol-5-ylmethyl)-amide] | 500 nM | 19% | 41% | 59% | 2100 nM | – | – |
| Cc1ccc(F)cc1C1CCc2cc(Oc3ncc(C(=O)NCCO)s3)ccc2O1 (stereo not drawn) [Example 342, 2-[2-(5-Fluoro-2-methyl-phenyl)-chroman-6-yloxy]-thiazole-5-carboxylic acid (2-hydroxy-ethyl)-amide] | 400 nM | 38% | 73% | 146% | 700 nM | – | – |
| CCCNC(=O)c1cnc(Oc2ccc3c(c2)CCC(c2cc(F)ccc2C)O3)s1 (stereo not drawn) [Example 343, 2-[2-(5-Fluoro-2-methyl-phenyl)-chroman-6-yloxy]-thiazole-5-carboxylic acid propylamide] | 500 nM | 20% | 25% | 39% | 800 nM | – | – |
| Cc1ccccc1[C@@H]1CCc2cc(Oc3ncc(C(=O)NCCOP(=O)([O-])[O-])s3)ccc2O1.[Na+].[Na+] [Example 345, Phosphoric acid mono-(2-{[2-((S)-2-o-tolyl-chroman-6-yloxy)-thiazole-5-carbonyl]-amino}-ethyl)ester disodium salt] | – | – | – | – | – | 32% | 85% |
| Cc1csc(CCNCc2cnc(Oc3ccc4c(c3)CCC(c3ccccc3)O4)s2)n1 (stereo not drawn) [compound 151, [2-(4-Methyl-thiazol-2-yl)-ethyl]-[2-(2-phenyl-chroman-6-yloxy)-thiazol-5-ylmethy]-amine] | 400 nM | – | – | – | – | – | – |
| CC[C@H](C)[C@H](NC(=O)c1cnc(Oc2ccc3c(c2)CCC(c2cccnc2)O3)s1)C(=O)O (stereo partly drawn) [compound 270, (23,3S)-3-Methyl-2-{[2-(2-pyridin-3-yl-chroman-6-yloxy)-thiazole-5-carbonyl]-amino}-pentanoic acid] | 12500 nM | – | – | – | – | – | – |
